Measured values published in US20100222217A1, “Fungicidal N-[2-(Haloalkoxy)Phenyl]Heteroarylcarboxamides” (priority 2005, published 2010).

How the values were obtained:
Alternaria solani = experiment: Activity against early blight on tomatoes caused by Alternaria solani; assay type: in vivo; conditions: 250 ppm, tomato plants, protective spray, assessed after 5 days; untreated plants 90% infected
Description: The active compounds were separately or jointly prepared as a stock solution comprising 25 mg of active compound which was made up to 10 ml using a mixture of acetone and/or dimethylsulfoxide and the emulsifier Uniperol® EL (wetting agent having emulsifying and dispersing action based on ethoxylated alkylphenols) in a volume ratio of solvent/emulsifier of 99 to 1. The mixture was then made up with water to 100 ml. This stock solution was diluted with the solvent/emulsifier/water mixture described to the desired concentration of active compounds.
Leaves of potted tomato plants of the cultivar “Goldene Königin” were sprayed to runoff point with an aqueous suspension having the concentration of active compounds stated below. The next day, the leaves were infected with an aqueous spore suspension of Alternaria solani in a 2% biomalt solution having a density of 0.17×10^6 spores/ml. The plants were then placed in a water vapor-saturated chamber at temperatures between 20 and 22° C. After 5 days, the disease on the untreated, but infected control plants had developed to such an extent that the infection could be determined visually in %.

[1] = tested on: Erysiphe [syn. Blumeria] graminis forma specialis. tritici; experiment: Activity against mildew of wheat caused by Erysiphe [syn. Blumeria] graminis forma specialis. tritici; assay type: in vivo; conditions: wheat seedlings, protective spray, assessed after 7 days
Description: The active compounds were separately or jointly prepared as a stock solution comprising 25 mg of active compound which was made up to 10 ml using a mixture of acetone and/or dimethylsulfoxide and the emulsifier Uniperol® EL (wetting agent having emulsifying and dispersing action based on ethoxylated alkylphenols) in a volume ratio of solvent/emulsifier of 99 to 1. The mixture was then made up with water to 100 ml. This stock solution was diluted with the solvent/emulsifier/water mixture described to the desired concentration of active compounds. Leaves of potted wheat seedlings were sprayed to runoff point with an aqueous suspension having the active compound concentration stated below. The suspension was prepared as described above. 24 hours after the spray coating had dried on, the plants were dusted with spores of mildew of wheat (Erysiphe [syn. Blumeria] graminis forma specialis. tritici). The test plants were then placed in a greenhouse at temperatures between 20 and 24° C. and at 60 to 90% relative atmospheric humidity. After 7 days, the extent of the mildew development was determined visually in % infection of the entire leaf area.

| melting point | SMILES | other results |
| --- | --- | --- |
| 91 to 93 °C | Cn1cc(C(=O)Nc2ccccc2OC(F)(F)C(F)C(F)(F)F)c(C(F)(F)F)n1 (stereo not drawn) [Compound I-1, N-[2-(1,1,2,3,3,3-Hexafluoropropoxy)phenyl]-1-methyl-3-trifluoromethyl-1H-pyrazole-4-carboxamide] |  |
| 94 to 95 °C | Cn1cc(C(=O)Nc2ccccc2OC(F)(F)C(F)Cl)c(C(F)(F)F)n1 (stereo not drawn) [Compound I-3, N-[2-(2-Chloro-1,1,2-trifluoroethoxy)phenyl]-1-methyl-3-trifluoromethyl-1H-pyrazole-4-carboxamide] |  |
| 110 to 111 °C | Cn1cc(C(=O)Nc2ccccc2OC(F)(F)C(F)Cl)c(C(F)F)n1 (stereo not drawn) [Compound I-4, N-[2-(2-chloro-1,1,2-trifluoroethoxy)phenyl]-3-difluoromethyl-1-methyl-1H-pyrazole-4-carboxamide] |  |
| 117 to 119 °C | Cn1cc(C(=O)Nc2ccccc2OC(F)(F)C(F)F)c(C(F)F)n1 [Compound I-5, N-[2-(1,1,2,2-tetrafluoroethoxy)phenyl]-3-difluoromethyl-1-methyl-1H-pyrazole-4-carboxamide] |  |
| 118 to 120 °C | Cc1nc(C(F)(F)F)c(C(=O)Nc2ccccc2OC(F)(F)C(F)F)s1 [Compound I-6, N-[2-(1,1,2,2-tetrafluoroethoxy)phenyl]-2-methyl-4-trifluoromethylthiazol-5-yl-carboxamide] |  |
| 134 to 135 °C | Cc1nc(C)c(C(=O)Nc2ccccc2OC(F)(F)C(F)F)s1 [Compound I-7, N-[2-(1,1,2,2-tetrafluoroethoxy)phenyl]-2,4-dimethylthiazol-5-ylcarboxamide] |  |
| 70 to 71 °C | Cc1nc(C(F)(F)F)c(C(=O)Nc2ccccc2OC(F)(F)C(F)C(F)(F)F)s1 (stereo not drawn) [Compound I-8, N-[2-(1,1,2,3,3,3-hexafluoropropoxy)phenyl]-2-methyl-4-trifluoromethylthiazole-5-carboxamide] |  |
| 80 to 81 °C | Cc1nc(C(F)(F)F)c(C(=O)Nc2ccccc2OC(F)(F)C(F)Cl)s1 (stereo not drawn) [Compound I-9, N-[2-(2-chloro-1,1,2-trifluoroethoxy)phenyl]-2-methyl-4-trifluoromethylthiazole-5-carboxamide] |  |
| 89 to 92 °C | Cc1nc(C(F)F)c(C(=O)Nc2ccccc2OC(F)(F)C(F)C(F)(F)F)s1 (stereo not drawn) [Compound I-11, N-[2-(1,1,2,3,3,3-hexafluoropropoxy)phenyl]-4-difluoromethyl-2-methylthiazole-5-carboxamide] |  |
| 126 to 128 °C | O=C(Nc1ccccc1OC(F)(F)C(F)F)c1cccnc1Cl [Compound I-12, N-[2-(1,1,2,2-tetrafluoroethoxy)phenyl]-2-chloronicotinamide] |  |
| 85 to 91 °C | O=C(Nc1ccccc1OC(F)(F)C(F)C(F)(F)F)c1cccnc1Cl (stereo not drawn) [Compound I-13, N-[2-(1,1,2,3,3,3-hexafluoropropoxy)phenyl]-2-chloronicotinamide] |  |
| 73 to 76 °C | O=C(Nc1ccccc1OC(F)(F)C(F)Cl)c1cccnc1Cl (stereo not drawn) [Compound I-14, N-[2-(2-chloro-1,1,2-trifluoroethoxy)phenyl]-2-chloronicotinamide] |  |
|  | Cc1nn(C)cc1C(=O)Nc1ccccc1OC(F)(F)C(F)F [N-[2-(1,1,2,2-tetrafluoroethoxy)phenyl]-1,3-dimethylpyrazol-4-yl-carboxamide] | infection (Alternaria solani): 60% |
|  | Cn1cc(C(=O)Nc2ccccc2OC(F)(F)C(F)F)c(C(F)(F)F)n1 [N-[2-(1,1,2,2-tetrafluoroethoxy)phenyl]-3-trifluormethyl-1-methylpyrazol-4-yl-carboxamide] | infection ([1]; 63 ppm, untreated plants 90% infected): 70%; infection ([1]; 250 ppm, untreated plants 80% infected): 40% |
